{
  "source": "patent US11992561B2",
  "about": "(priority 2020, dated 2024)",
  "key": {"[1]": {"assay": "Clinical study: plasma concentrations and pharmacokinetics after (S)-ketamine OTF", "settings": "for Tmax: calculated using a PK model (NONMEM); for plasma level of the metabolite following administration of an OTF as compared to intravenous administration of 20 mg (S)-ketamine: FIGS. 3-8"}, "[2]": {"assay": "Clinical study: safety, side effects, taste, psychedelic effects (Bowdle, Bond and Lader questionnaires)"}},
  "data": [
    {"smiles": "N[C@]1(c2ccccc2Cl)CCC[C@H](O)C1=O", "note": "[(S)-Hydroxynorketamine]", "values": [
      {"measurement": "Tmax", "setting": "[1]; 50 mg (S)-Ketamine OTF", "result": 1.35, "unit": "h"},
      {"measurement": "Tmax", "setting": "[1]; 100 mg (S)-Ketamine OTF", "result": 1.82, "unit": "h"},
      {"measurement": "Cmax plasma concentration", "setting": "[1]; All data, 50 mg (S)-ketamine OTF (formulation 15)", "result": 94, "unit": "ng/mL"},
      {"measurement": "Cmax plasma concentration", "setting": "[1]; Buccally, 50 mg (S)-ketamine OTF, n=5", "result": 81, "unit": "ng/mL"},
      {"measurement": "plasma level of the metabolite following administration of an OTF as compared to intravenous administration of 20 mg (S)-ketamine", "setting": "[1]", "result": "higher"},
      {"measurement": "Cmax plasma concentration", "setting": "[1]; Sublingually, 50 mg (S)-ketamine OTF, n=15", "result": 98, "unit": "ng/mL"}
    ]},
    {"smiles": "N[C@]1(c2ccccc2Cl)CCCCC1=O", "note": "[(S)-Norketamine]", "values": [
      {"measurement": "Tmax", "setting": "[1]; 50 mg (S)-Ketamine OTF", "result": 1.02, "unit": "h"},
      {"measurement": "Tmax", "setting": "[1]; 100 mg (S)-Ketamine OTF", "result": 1.3, "unit": "h"},
      {"measurement": "Cmax plasma concentration", "setting": "[1]; All data, 2 × 50 mg (S)-ketamine OTF (formulation 15)", "result": 330, "unit": "ng/mL"},
      {"measurement": "Cmax plasma concentration", "setting": "[1]; Buccally, 2 × 50 mg (S)-ketamine OTF, n=5", "result": 450, "unit": "ng/mL"},
      {"measurement": "plasma level of the metabolite following administration of an OTF as compared to intravenous administration of 20 mg (S)-ketamine", "setting": "[1]", "result": "higher"}
    ]},
    {"smiles": "CNC1(c2ccccc2Cl)CCCCC1=O", "note": "(racemic) [(S)-ketamine, (S)-(±)-2-(2-chlorophenyl)-2-(methylamino)cyclohexan-1-one]", "values": [
      {"measurement": "Dizziness (number of adverse events)", "setting": "[2]; 20 mg (S)-ketamine IV", "result": 4},
      {"measurement": "Drowsiness (number of adverse events)", "setting": "[2]; 20 mg (S)-ketamine IV", "result": 3},
      {"measurement": "Dry eyes (number of adverse events)", "setting": "[2]; 20 mg (S)-ketamine IV", "result": 1},
      {"measurement": "Headache (number of adverse events)", "setting": "[2]; 20 mg (S)-ketamine IV", "result": 3},
      {"measurement": "High blood pressure (SBP > 180 mm Hg) (number of adverse events)", "setting": "[2]; 20 mg (S)-ketamine IV", "result": 2},
      {"measurement": "Nausea (number of adverse events)", "setting": "[2]; 20 mg (S)-ketamine IV", "result": 2},
      {"measurement": "Sweating (number of adverse events)", "setting": "[2]; 20 mg (S)-ketamine IV", "result": 1},
      {"measurement": "Total (number of adverse events)", "setting": "[2]; 20 mg (S)-ketamine IV", "result": 17},
      {"measurement": "Whistling noise in the ear (number of adverse events)", "setting": "[2]; 20 mg (S)-ketamine IV", "result": 1},
      {"measurement": "Blurred vision (number of adverse events)", "setting": "[2]; 50 mg (S)-ketamine as OTF", "result": 1},
      {"measurement": "Bradykinesia (number of adverse events)", "setting": "[2]; 50 mg (S)-ketamine as OTF", "result": 1},
      {"measurement": "Dizziness (number of adverse events)", "setting": "[2]; 50 mg (S)-ketamine as OTF", "result": 1},
      {"measurement": "Feeling of drunkenness (number of adverse events)", "setting": "[2]; 50 mg (S)-ketamine as OTF", "result": 2},
      {"measurement": "Headache (number of adverse events)", "setting": "[2]; 50 mg (S)-ketamine as OTF", "result": 1},
      {"measurement": "Nausea (number of adverse events)", "setting": "[2]; 50 mg (S)-ketamine as OTF", "result": 1},
      {"measurement": "Total (number of adverse events)", "setting": "[2]; 50 mg (S)-ketamine as OTF", "result": 7},
      {"measurement": "Bradykinesia (number of adverse events)", "setting": "[2]; 100 mg (S)-ketamine as OTF", "result": 1},
      {"measurement": "Dizziness (number of adverse events)", "setting": "[2]; 100 mg (S)-ketamine as OTF", "result": 3},
      {"measurement": "Headache (number of adverse events)", "setting": "[2]; 100 mg (S)-ketamine as OTF", "result": 2},
      {"measurement": "Nausea (number of adverse events)", "setting": "[2]; 100 mg (S)-ketamine as OTF", "result": 1},
      {"measurement": "Numbness of the tongue (number of adverse events)", "setting": "[2]; 100 mg (S)-ketamine as OTF", "result": 2},
      {"measurement": "Total (number of adverse events)", "setting": "[2]; 100 mg (S)-ketamine as OTF", "result": 9}
    ]},
    {"smiles": "CNC1(c2ccccc2Cl)CCCCC1=O", "note": "(stereo not shown) [ketamine]", "values": [
      {"measurement": "plasma levels of ketamine, intravenous administration versus administration of an OTF", "setting": "[1]; FIGS. 9-11", "result": "higher for intravenous administration"}
    ]}
  ]
}
